In patent US10363239B2, “Method for inhibiting growth of cancer cells” (Pain Therapeutics, Inc., priority 2013, dated 2019):
Where two headings read alike, the source gives them in different places.

Columns and labels:
[1] = target: FLNA pentapeptide of SEQ ID NO: 1 (Bn-VAKGL) (Homo sapiens, UniProt P21333); assay: FITC-NLX-based FLNA screening assay (inhibition of FITC-naloxone binding to Bn-VAKGL on streptavidin plates); conditions: 10 nM FITC-NLX
mu opiate receptor (MOR) = assay: MOR agonist activity using [35S]GTPγS binding assay in striatal membranes; format: biochemical; conditions: for MOR agonist activity ([35S]GTPγS binding), FLNA-Binding Compound as Agonist 1 μM + BFNA: 1 μM compound + 1 μM β-funaltrexamine
Outline: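 Striatal membranes (200 μg) were preincubated 5 min at 30 °C in HEPES pH 7.5 with 100 mM NaCl, 1 mM MgCl2 and 0.5 nM [35S]GTPγS, then 5 min more with 0.1–10 μM compound. Gαo was immunoprecipitated and bound radioactivity counted by scintillation.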

[2] = read-out: Percent Binding Inhibition, FLNA-binding compound 0.01 μM
[3] = read-out: Percent Binding Inhibition, FLNA-binding compound 0.1 μM
[4] = read-out: Percent Binding Inhibition, FLNA-binding compound 1 μM
[5] = Series C-2, 0.1 μM compound, relative to DAMGO
[6] = Series C-2, 0.1 μM compound, [35S]GTPγS binding to Gαo, striatal membranes
[7] = Series C-2, 1 μM compound + 1 μM β-FNA
[8] = Series C-2, 1 μM compound + β-FNA, relative to DAMGO + BFNA
[9] = Series C-2, 1 μM compound, relative to DAMGO
[10] = Series C-2, 1 μM compound, [35S]GTPγS binding to Gαo, striatal membranes
[11] = Series C-1, 0.1 μM compound, relative to DAMGO
[12] = Series C-1, 0.1 μM compound, [35S]GTPγS binding to Gαo, striatal membranes
[13] = Series C-1, 1 μM compound + 1 μM β-FNA
[14] = Series C-1, 1 μM compound + β-FNA, relative to DAMGO + BFNA
[15] = Series C-1, 1 μM compound, relative to DAMGO
[16] = Series C-1, 1 μM compound, [35S]GTPγS binding to Gαo, striatal membranes
[17] = FLNA-binding compound 0.01 μM, read-out: Percent Binding Inhibition
[18] = FLNA-binding compound 0.1 μM, read-out: Percent Binding Inhibition
[19] = FLNA-binding compound 1 μM, read-out: Percent Binding Inhibition
[20] = 0.1 μM compound relative to DAMGO
[21] = 1 μM compound + BFNA relative to DAMGO + BFNA
[22] = 1 μM compound relative to DAMGO
[23] = Series B, 0.1 μM compound, relative to DAMGO
[24] = Series B, 0.1 μM compound, [35S]GTPγS binding to Gαo, striatal membranes
[25] = Series B, 1 μM compound + 1 μM β-FNA
[26] = Series B, 1 μM compound + β-FNA, relative to DAMGO + BFNA
[27] = Series B, 1 μM compound, relative to DAMGO
[28] = Series B, 1 μM compound, [35S]GTPγS binding to Gαo, striatal membranes

## CC(=O)c1ccc(S(=O)(=O)N2CC(=O)NC23CCNCC3)cc1 [Compound C0086M]
[1]; [2]
  inhibition at 0.01 µM: 37.9%
[1]; [3]
  inhibition at 0.1 µM: 48.1%
[1]; [4]
  inhibition at 1 µM: 53.4%
Mu opiate receptor (MOR); [5]
  % DAMGO (0.1 μM): 117.5%
Mu opiate receptor (MOR); [6]
  MOR agonist activity, percent [35S]GTPγS binding at the stated compound concentration: 206.8%
Mu opiate receptor (MOR); [7]
  MOR agonist activity, percent [35S]GTPγS binding at the stated compound concentration: 152.3%
Mu opiate receptor (MOR); [8]
  % DAMGO + BFNA: 692.3%
Mu opiate receptor (MOR); [9]
  % DAMGO (1 μM): 104.9%
Mu opiate receptor (MOR); [10]
  MOR agonist activity, percent [35S]GTPγS binding at the stated compound concentration: 265.3%

## CC(=O)c1ccc(S(=O)(=O)N2CCC3(CC2)NC(=O)C(Cc2cnc[nH]2)N3S(=O)(=O)c2ccc(C(C)=O)cc2)cc1 (stereo not drawn) [Compound C0084M]
[1]; [2]
  inhibition at 0.01 µM: 47.2%
[1]; [3]
  inhibition at 0.1 µM: 53.7%
[1]; [4]
  inhibition at 1 µM: 55.9%
Mu opiate receptor (MOR); [11]
  % DAMGO (0.1 μM): 97.3%
Mu opiate receptor (MOR); [12]
  Concentration of FLNA-Binding Compound as Agonist 0.1 μM: 163.1%
Mu opiate receptor (MOR); [13]
  Concentration of FLNA-Binding Compound as Agonist 1 μM + BFNA: 133.2%
Mu opiate receptor (MOR); [14]
  % DAMGO + BFNA: 280.4%
Mu opiate receptor (MOR); [15]
  % DAMGO (1 μM): 114.9%
Mu opiate receptor (MOR); [16]
  Concentration of FLNA-Binding Compound as Agonist 1 μM: 255.5%

## COc1ccc(S(=O)(=O)N2CCC3(CC2)OCCN3S(=O)(=O)c2ccc(C(C)=O)cc2)cc1 [Compound C0048]
[1]; [2]
  inhibition at 0.01 µM: 28.5%
[1]; [3]
  inhibition at 0.1 µM: 38.9%
[1]; [4]
  inhibition at 1 µM: 45.9%
Mu opiate receptor (MOR); [11]
  % DAMGO (0.1 μM): 144.2%
Mu opiate receptor (MOR); [12]
  Concentration of FLNA-Binding Compound as Agonist 0.1 μM: 209.1%
Mu opiate receptor (MOR); [13]
  Concentration of FLNA-Binding Compound as Agonist 1 μM + BFNA: 89.9%
Mu opiate receptor (MOR); [14]
  % DAMGO + BFNA: 204.3%
Mu opiate receptor (MOR); [15]
  % DAMGO (1 μM): 105.3%
Mu opiate receptor (MOR); [16]
  Concentration of FLNA-Binding Compound as Agonist 1 μM: 245.3%

## CN1CCC2(CC1)NC(=O)CN2Cc1ccccc1 [Compound C0104M]
[1]; [17]
  inhibition at 0.01 µM: 51.4%
[1]; [18]
  inhibition at 0.1 µM: 54.1%
[1]; [19]
  inhibition at 1 µM: 55.2%
Mu opiate receptor (MOR); [5]
  % DAMGO (0.1 μM): 99.5%
Mu opiate receptor (MOR); [6]
  MOR agonist activity, percent [35S]GTPγS binding at the stated compound concentration: 188.2%
Mu opiate receptor (MOR); [7]
  MOR agonist activity, percent [35S]GTPγS binding at the stated compound concentration: 143.8%
Mu opiate receptor (MOR); [8]
  % DAMGO + BFNA: 296.5%
Mu opiate receptor (MOR); [9]
  % DAMGO (1 μM): 96.3%
Mu opiate receptor (MOR); [10]
  MOR agonist activity, percent [35S]GTPγS binding at the stated compound concentration: 238.9%

## CC1CCC(C(C)C)C(OCC(O)CN2CCN(CCc3ccccc3)CC2)C1 (stereo not drawn) [Compound A0020]
[1]; [17]
  inhibition at 0.01 µM: 37.8%
[1]; [18]
  inhibition at 0.1 µM: 38.8%
[1]; [19]
  inhibition at 1 µM: 45.8%
Mu opiate receptor (MOR); 0.1 μM compound
  MOR agonist activity ([35S]GTPγS binding), FLNA-Binding Compound as Agonist 0.1 μM: 168.6%
Mu opiate receptor (MOR); [20]
  % DAMGO (0.1 μM): 100.9%
Mu opiate receptor (MOR); 1 μM compound
  MOR agonist activity ([35S]GTPγS binding), FLNA-Binding Compound as Agonist 1 μM: 217.4%
Mu opiate receptor (MOR)
  MOR agonist activity ([35S]GTPγS binding), FLNA-Binding Compound as Agonist 1 μM + BFNA: 67.4%
Mu opiate receptor (MOR); [21]
  % DAMGO + BFNA: 194.2%
Mu opiate receptor (MOR); [22]
  % DAMGO (1 μM): 88.7%

## CC1CN(CC(O)COc2ccc(Br)c(F)c2)CC(C)O1 (stereo not drawn) [Compound A0041]
[1]; [2]
  inhibition at 0.01 µM: 45.8%
[1]; [3]
  inhibition at 0.1 µM: 51.7%
[1]; [4]
  inhibition at 1 µM: 56.9%
Mu opiate receptor (MOR); 0.1 μM compound
  MOR agonist activity ([35S]GTPγS binding), FLNA-Binding Compound as Agonist 0.1 μM: 212.7%
Mu opiate receptor (MOR); [20]
  % DAMGO (0.1 μM): 108.4%
Mu opiate receptor (MOR); 1 μM compound
  MOR agonist activity ([35S]GTPγS binding), FLNA-Binding Compound as Agonist 1 μM: 283.6%
Mu opiate receptor (MOR)
  MOR agonist activity ([35S]GTPγS binding), FLNA-Binding Compound as Agonist 1 μM + BFNA: 50.6%
Mu opiate receptor (MOR); [21]
  % DAMGO + BFNA: 68.5%
Mu opiate receptor (MOR); [22]
  % DAMGO (1 μM): 102.8%

## COc1cccc(CC(=O)CC2c3c(cc4c(c3OC)OCO4)CC[N+]2(C)C)c1OC (stereo not drawn) [Compound B0038]
[1]; [2]
  inhibition at 0.01 µM: 41.2%
[1]; [3]
  inhibition at 0.1 µM: 50.1%
[1]; [4]
  inhibition at 1 µM: 57%
Mu opiate receptor (MOR); [23]
  % DAMGO (0.1 μM): 94.2%
Mu opiate receptor (MOR); [24]
  MOR agonist activity, percent [35S]GTPγS binding at the stated compound concentration: 147.5%
Mu opiate receptor (MOR); [25]
  MOR agonist activity, percent [35S]GTPγS binding at the stated compound concentration: 117.1%
Mu opiate receptor (MOR); [26]
  % DAMGO + BFNA: 359.2%
Mu opiate receptor (MOR); [27]
  % DAMGO (1 μM): 88.7%
Mu opiate receptor (MOR); [28]
  MOR agonist activity, percent [35S]GTPγS binding at the stated compound concentration: 205.3%

## COc1cc(OC)cc(C(=O)CC2c3c(cc4c(c3OC)OCO4)CC[N+]2(C)C)c1 (stereo not drawn) [Compound B0035]
[1]; [2]
  inhibition at 0.01 µM: 45.4%
[1]; [3]
  inhibition at 0.1 µM: 44.7%
[1]; [4]
  inhibition at 1 µM: 51%
Mu opiate receptor (MOR); [23]
  % DAMGO (0.1 μM): 109.8%
Mu opiate receptor (MOR); [24]
  MOR agonist activity, percent [35S]GTPγS binding at the stated compound concentration: 188.0%
Mu opiate receptor (MOR); [25]
  MOR agonist activity, percent [35S]GTPγS binding at the stated compound concentration: 74.2%
Mu opiate receptor (MOR); [26]
  % DAMGO + BFNA: 142.4%
Mu opiate receptor (MOR); [27]
  % DAMGO (1 μM): 93.2%
Mu opiate receptor (MOR); [28]
  MOR agonist activity, percent [35S]GTPγS binding at the stated compound concentration: 248.7%

## CC(=O)c1ccc(S(=O)(=O)N2CCC3(CC2)NCCS3)cc1 [Compound C0060]
[1]; [17]
  inhibition at 0.01 µM: 60.3%
[1]; [18]
  inhibition at 0.1 µM: 64%
[1]; [19]
  inhibition at 1 µM: 68%
Mu opiate receptor (MOR); [5]
  % DAMGO (0.1 μM): 114.8%
Mu opiate receptor (MOR); [6]
  MOR agonist activity, percent [35S]GTPγS binding at the stated compound concentration: 166.5%
Mu opiate receptor (MOR); [7]
  MOR agonist activity, percent [35S]GTPγS binding at the stated compound concentration: 143.9%
Mu opiate receptor (MOR); [8]
  % DAMGO + BFNA: 327.0%
Mu opiate receptor (MOR); [9]
  % DAMGO (1 μM): 93.9%
Mu opiate receptor (MOR); [10]
  MOR agonist activity, percent [35S]GTPγS binding at the stated compound concentration: 218.9%
